Consider two compounds from ChEMBL document CHEMBL1144606, “Immunomodulatory effects of two sapogenins 1 and 2 isolated from Luffa cylindrica in Balb/C mice” (Bioorg Med Chem Lett, 2007).

For data set [1], the system named is Splenocyte. The data set can be described thus: Enhancement of ConA-stimulated blastogenic responsiveness in BALB/c mouse splenocytes at 100 mg/kg. The arrangement: dose 100 mg/kg. The format is functional, organism-based.
Data set [2] concerns Splenocyte. The data set can be described thus: Enhancement of LPS-stimulated blastogenic responsiveness in BALB/c mouse splenocytes at 100 mg/kg. The format is functional, organism-based. The arrangement: dose 100 mg/kg.
Data set [3] concerns Mus musculus. The data set can be described thus: Enhancement of ConA-Stimulated lymphocyte proliferation in BALB/c mouse at 10 mg/kg by MTT assay. Type of data set: functional, organism-based. The arrangement: dose 10 mg/kg.
For data set [4], the system named is Splenocyte. The data set can be described thus: Enhancement of ConA-stimulated blastogenic responsiveness in BALB/c mouse splenocytes at 10 mg/kg. The arrangement: dose 10 mg/kg. The format is functional, organism-based.
In data set [5] the test system is Mus musculus. The data set can be described thus: Enhancement of ConA-Stimulated lymphocyte proliferation in BALB/c mouse at 100 mg/kg by MTT assay. The format is functional, organism-based. The arrangement: dose 100 mg/kg.
The subject of data set [6] is Mus musculus. In words: Immunostimulatory effect against SRBC-inducing plaque forming cells in BALB/c mouse assessed as antibody secreting B cells at 10 mg/kg, po relative to control. Type of data set: functional, organism-based. Also on record: dose 10 mg/kg.
The test system of data set [7] is Mus musculus. In words: Immunostimulatory effect against SRBC-inducing plaque forming cells in BALB/c mouse assessed as antibody secreting B cells at 100 mg/kg, po relative to control. Type of data set: functional, organism-based. The arrangement: dose 100 mg/kg.
Data set [8] concerns Mus musculus. In words: Increased phagocytic index in BALB/c mouse at 10 mg/kg. Particulars: in vivo. The format is organism-based. Also on record: dose 10 mg/kg.
The test system of data set [9] is Mus musculus. In words: Enhancement of LPS-Stimulated of lymphocyte proliferation in BALB/c mouse at 100 mg/kg by MTT assay. Type of data set: functional, organism-based. The arrangement: dose 100 mg/kg.
Data set [10] has as its system Mus musculus. In words: Immunostimulatory effect against SRBC-induced hormonal response in BALB/c mouse assessed as antibody production at 10 m/kg. The format is functional, organism-based.
For data set [11], the system named is Mus musculus. In words: Immunostimulatory effect against SRBC-inducing hormoral response in BALB/c mouse assessed as antibody production at 100 mg/kg. Type of data set: functional, organism-based. The arrangement: dose 100 mg/kg.
The subject of data set [12] is Mus musculus. In words: Enhancement of LPS-Stimulated lymphocyte proliferation in BALB/c mouse at 10 mg/kg by MTT assay. Also on record: dose 10 mg/kg. Type of data set: functional, organism-based.
The test system of data set [13] is Splenocyte. In words: Enhancement of LPS-stimulated blastogenic responsiveness in BALB/c mouse splenocytes at 10 mg/kg. The format is functional, organism-based. Also on record: dose 10 mg/kg.

Each structure is given as a SMILES string. The source made the active and inactive calls. The rule behind the calls is not given here.

As to `CC1(C)CC[C@]2(C(=O)O)[C@H](O)C[C@]3(C)C(=CC[C@@H]4[C@@]5(C)CC[C@H](O)C(C)(C)[C@@H]5CC[C@]43C)[C@@H]2C1`, the result in the data set with Splenocyte [1], with Splenocyte [2], in the data set with Mus musculus [3], in the data set on Splenocyte [4], with Mus musculus [5] and in the data set on Mus musculus [6] was Active. Also, the outcome in the data set with Mus musculus [7] and in the data set with Mus musculus [9] was Active. Moreover, in the data set with Mus musculus [8], the outcome was Active.

In the case of `CC1(C)CC[C@]2(C(=O)O)CC[C@]3(C)C(=CC[C@@H]4[C@@]5(C)CC[C@H](O)C(C)(C)[C@@H]5CC[C@]43C)[C@@H]2C1` [OLEANOLIC_ACID], the outcome with Splenocyte [1], with Mus musculus [10], with Mus musculus [3], with Splenocyte [4], with Mus musculus [12] and in the data set on Mus musculus [5] was Active. The outcome in the data set on Splenocyte [13], with Mus musculus [6] and with Mus musculus [7] was Active. In the data set with Mus musculus [11], the result was inactive. For the same compound, in the data set on Mus musculus [8], the outcome was Active.
